Assay results: a melting point compilation (Tetko et al.; mined from patent text by program, amines drawn as free bases though some values may be those of a salt)

| Compound | melting point [°C] |
| --- | --- |
| CC(C)Cn1c(CN)c(-c2ccccc2)c2cc(OCC(N)=O)ccc2c1=O | 161 to 163 |
| COc1ccc(-c2cc(=O)n(-c3ccccn3)nc2C)cc1 | 156 to 157 |
| Cc1cc(C)c2c(c1C)OC(=O)C2c1ccc(Br)cc1 (stereo unspecified) | 168 to 169 |
| Cc1ccc(Cl)c(-c2cc(=O)c3c(O)cc(O)c([C@@H]4CCN(C)[C@H]4CO)c3o2)c1 | 206 to 208 |
| CC1=C(C(=O)O)C(c2ccccc2Cl)C(c2cccs2)=NN1 (stereo unspecified) | 188 |
| O=C(O)c1cc(=O)cc(-c2ccccc2Cl)o1 | 241 to 246 |
| CNC(=O)c1cccc(NC(=O)CCc2ccccc2C)c1 | 131 |
| N#Cc1cc(C2=NOC(c3cc(Cl)cc(Cl)c3)(C(F)(F)F)C2)ccc1-n1cncn1 (stereo unspecified) | 118 to 125 |
| COC(=O)CC1CC(c2ccc(C#N)cc2F)=NO1 (stereo unspecified) | 92 to 94 |
| Cc1[nH]c2ccccc2c1CCCN1CCC(c2noc3cc(Cl)ccc23)CC1 | 108 to 110 |
| O=C(O)c1cnc2cccc(O)c2c1 | > 260 |
| COc1ccc(OC(=O)CN2CCN(Cc3cc(OC)c(OC)c(OC)c3)CC2)cc1 | 94 to 97 |
| COC(=O)c1cccc(-c2nc(=O)c3ccccc3s2)c1 | 164 |
| O=C(N[C@H](Cc1ccc(C(F)(F)F)cc1)[C@@H](O)c1ccc(F)cc1)C1CCCCC1 (racemic) | 203 to 204 |
| CSc1sc(-c2ccccn2)c2c1C(=O)CC(C)(C)C2 | 217 to 220 |
| Cc1c(-c2ccc(OC3CCCC3)cc2)n(Cc2ccc(OCCO)cc2)c2ccc(OCc3ccccc3)cc12 | 129 to 131 |
| O=C1CCOc2cc(F)ccc21 | 61 to 62 |
| O=C(CNc1ccc(Cl)cc1)c1cc(O)c(O)c([N+](=O)[O-])c1 | 177 to 178 |
| CCCC1(c2ccccc2Cl)C(=O)Nc2ccc(OCC)cc21 (stereo unspecified) | 136 |
| Cc1nc2nccc(C(C)Oc3ccc(Cl)cc3)n2n1 (stereo unspecified) | 138 |
| CC1(C)CCC(OC2=C(c3ccc(S(C)(=O)=O)cc3)C(C)(C)OC2=O)C1 (stereo unspecified) | 99 to 100 |
| CSc1ccc2cc(O)ccc2c1 | 120 to 122 |
| CC(C)n1c(CO)c(-c2ccc(F)cc2)c(-c2ccccc2)c1C(N)=O | 189 to 190 |
| O=C(O)c1ccc(OCCCc2cc(-c3ccc(C(F)(F)F)cc3)no2)cc1 | 221 to 222 |

| Compound | melting point [°C] |
| --- | --- |
| O=C1C=C(NC(=O)C(=O)c2cn(Cc3cccc(C(F)(F)F)c3)c3cc([N+](=O)[O-])ccc23)CO1 | 279 to 281 |
| CC(C)(C)OC(=O)N[C@@H](Cc1cc(F)cc(F)c1)[C@H]1CO1 | 99 |
| O=C(O)Cc1sc(S)nc1-c1ccc(Cl)cc1 | 245 to 247 |
| COC(=O)C(C)(C)OCc1cc2nc(Cl)ccc2n1S(=O)(=O)c1cccc2ccccc12 | 108 |
| COc1ccc(N2CCN(c3c(C)c(C)c4c(c3C)C(N3CCCc5ccccc53)C(C)(C)O4)CC2)cc1 (stereo unspecified) | 188 to 190 |
| O=C(NCCCCn1ccnc1)c1ccc(Cl)c(Cl)c1 | 86 to 88 |
| COc1ccc(Cn2c3c(c4cc(F)cc(F)c42)CCCC3CC(=O)O)cc1 (stereo unspecified) | 149 to 151 |
| COC(=O)c1ccc(OCCCC#N)c(Cl)c1 | 144 |
| O=C1Nc2ccccc2Sc2cc(C(F)(F)F)ccc21 | 216 to 217 |
| O=C1c2ccccc2C(=O)N1Cc1noc(-c2ncn3c2[C@@H]2CCN2C(=O)c2c-3cccc2C(F)(F)F)n1 | 243 to 245 |
| NS(=O)(=O)c1cc(Cl)ccc1S | 142 to 144 |
| COc1cc(NC(=O)CN2CCN(c3ncccc3C#N)CC2)cc(OC)c1OC | 123 to 124 |
| ON=Cc1c[nH]c2cccc(OCc3ccccc3)c12 | 206 to 210 |
| Nc1ccc2c(=O)[nH]c(=O)n(-c3ccccc3)c2n1 | > 300 |
| CN1OCCN(c2ccc(Cl)cc2Cl)C1=O | 94 to 95 |
| N#CC(c1ccccc1)(c1ccccc1)[C@H]1CCCN(CCc2ccc3c(c2)CCC3)C1 | 88 to 91 |
| CC(C)(C)OC(=O)Nc1ccc(-c2cccc(F)c2)cc1NC(=O)CC(=O)c1cccc(-n2ccnc2)c1 | 70 to 83 |
| Clc1nc(NCc2cccc(I)c2)c2[nH]cnc2n1 | 222 to 224 |
| CCCCCn1c2ccccc2c2cc(C(=O)OCC)ncc21 | 92 to 93 |
| COC(=O)c1cccc(N)n1 | 87 |
| CC(C)OC(=O)N1CCC(c2ccc3nc(-c4ccc(S(C)(=O)=O)cc4F)sc3c2)CC1 | 163 to 166 |
| O=C(Nc1cccc(F)c1)NC1CCN(S(=O)(=O)c2cccc(C(F)(F)F)c2)CC1 | 86 to 88 |
| CCOc1nn(-c2ccccn2)cc1CCCOc1cccc(CC(=O)O)c1 | 66 to 67 |
| CC1CC(C)CN(CN2C(=O)CN(CC(C)N3CC(=O)N(CN4CC(C)CC(C)C4)C(=O)C3)CC2=O)C1 (stereo unspecified) | 142 to 144 |

| Compound | melting point [°C] |
| --- | --- |
| CC(C)[C@H](NC(=O)c1ccccc1)C(=O)NCC(=O)N[C@@H](CCCNC(=N)N)C(=O)Nc1ccc2ncccc2c1 | 167 to 169 |
| O=c1[nH]c2sc3c(Cl)cccc3c2[nH]c1=O | > 300 |
| CCCCCCCCCCCCCCC[C@H]1O[C@@H]1C(=O)OC | 54 to 55 |
| CCC(CC)N(Cc1ccc(C(=O)O)cc1)S(=O)(=O)c1ccc(C)cc1 | 86 to 88 |
| N#Cc1cc(O)c2[nH]c(=O)oc2c1 | > 220 |
| COC(=O)C(C)(O)c1ccc(-c2ccccc2)c(F)c1 (stereo unspecified) | 59 to 61 |
| CC(=O)c1ccc(OCCCCCCOc2ccccc2)o1 | 80 |
| CC(C)N1C(=O)[C@@H](CC(=O)NCC#N)O[C@H](c2ccccc2Cl)c2cc(Cl)ccc21 (relative stereo) | 216 to 217 |
| COc1ccc(OCc2cccc(OCc3ccc4ccccc4n3)c2)cc1 | 83 to 85 |
| COC(=O)c1nc(-c2ccc(Cl)cc2F)cc(N)c1OC | 139 to 144 |
| CC(=O)c1ccc2c(c1)C(Cl)Cc1ccc(F)cc1S2 (stereo unspecified) | 112 to 114 |
| COc1cc2c(cc1C(F)(F)F)N(C(=O)Nc1ccc3c(ccn3Cc3ccncc3)c1)CC2 | 215 to 218 |
| O=C1CCC(N2C(=O)c3ccc(CNC(=O)c4ccco4)cc3C2=O)C(=O)N1 (stereo unspecified) | 180 to 182 |
| COc1cccc2cc(C(=O)c3ccc(Cl)c(S(=O)(=O)Cl)c3)oc12 | 143 to 145 |
| CCOC(=O)c1c(Cl)nc2ccsc2c1Cl | 73 |
| COc1ccc(C(=O)c2[nH]c(=O)[nH]c2COC(C)=O)cc1 | 155 to 162 |
| COC(=O)C(O)C(NC(=O)OCc1ccccc1)C(=O)OC (stereo unspecified) | 129 |
| Cn1ncc(C(=O)N2CCCC2)c1C(=O)Nc1cc2nc(-c3ccccc3)nn2cc1F | 250 to 251 |
| COc1ccc2oc(C(=O)c3cc(F)ccc3N3CCOCC3)cc2c1 | 85 to 88 |
| O=C(Nc1nnn[nH]1)c1cnc2sc3ccc(F)cc3n2c1=O | > 300 |
| O=C(Nc1c([N+](=O)[O-])cnn1-c1c(Cl)cc(S(=O)(=O)C(F)(F)F)cc1Cl)C(Cl)Cl | 138 to 142 |
| CCOc1ccc2nc(NC(=O)N(C)C)sc2c1 | 183 to 186 |
| COc1ccc(N2C(=O)C(C)N(c3ccc(Cc4ccccc4)cc3)C2=S)cc1 (stereo unspecified) | 122 |
